Data: paper PMC8636943
Blank lines part the entries; values can stand above or below the molecule they belong to.

How the values were obtained:
[1] = test system: G4-Apt (DNA, G4) AGGGACGGGACCGTCTTCCAGACAAGAGTGCAGGGAGGGACGGGA; assay: biolayer interferometry (Octet RED96); conditions: binding buffer (composition not given), 25 °C
[2] = test system: anti-VEGF165 aptamer (DNA, aptamer) CCGTCTTCCAGACAAGAGTGCAGGG; assay: biolayer interferometry (Octet RED96); conditions: binding buffer (composition not given), 25 °C
VEGF165 = VEGF165 (human, UniProt P15692-4 27-191); assay: BLI; BLI (Octet RED96), 25 C, 1000 rpm, 200 uL binding buffer (composition not given), VEGF165 6.25-100 nM, BSA blank as reference; conditions: protein: commercial, chain copies: 2
Sequence of VEGF165 (P15692 other isoform, or with tags, fused parts or gaps): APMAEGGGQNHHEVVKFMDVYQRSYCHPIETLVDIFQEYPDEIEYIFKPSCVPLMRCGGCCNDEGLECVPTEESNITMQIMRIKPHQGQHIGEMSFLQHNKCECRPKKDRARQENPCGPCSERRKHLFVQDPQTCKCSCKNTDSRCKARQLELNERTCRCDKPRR

K D [1]: 52900 nM
binding [2]: no
Molecule: Cc1ccc2c(c1)sc(-c1ccc(N(C)C)cc1)[n+]2C

Molecule: AGGGACGGGACCGTCTTCCAGACAAGAGTGCAGGGAGGGACGGGA (structured_DNA) [G4-Apt]
Kd (VEGF165; largely parallel G-quadruplex by CD): 0.538 nM

Molecule: CCGTCTTCCAGACAAGAGTGCAGGG (ssDNA) [anti-VEGF165 aptamer]
Kd (VEGF165; B-DNA form by CD): 0.287 nM
